Results from article PMC9013686, “Inter-individual variation in chlorpyrifos toxicokinetics characterized by physiologically based kinetic (PBK) and Monte Carlo simulation comparing human liver microsome and Supersome™ cytochromes P450 (CYP)-specific kinetic data as model input” (Archives of Toxicology, 2022).
“And” between values parts separate entries of the source, which are not always exact repeats. Equal entries are not always repeated. Where two headings read alike, the source gives them in different places.

What was measured:
[1] = test system: CYP1A2, CYP2B6, CYP2C19 and CYP3A4; assay: Summed Supersome CYP kinetics scaled to whole liver; type: in vitro ADME, human
Experimental: The in vivo Kmi values were assumed to be equal to the apparent Kmi(app) values (µM) obtained in the in vitro incubations, while the in vivo Vmaxi for each CYP isoform was derived from their corresponding apparent CYP isoform Vmaxi(app) (pmol/min/pmolCYP) using Eq. 3:3 Vmaxi=Vmaxiapp×CYPiabundance×ISEF×60×MPL×1000×VL/1,000,000,
To gain a better insight in the contribution of each CYP to the metabolism of CPF in vivo at different concentrations of CPF, the apparent Supersome™ kinetic data were scaled toward the whole liver according to Eq. 3.
To evaluate the performance of the Supersomes™ together with the ISEF to predict the bioactivation of CPF, the sum of the scaled CE of the four individual Supersomes™ was compared to the CE obtained for the pooled HLMs (for both non-biphasic and biphasic scenarios).

CYP1A2 = target: T1, CYP1A2 (Homo sapiens, UniProt P05177); settings: bioactivation of CPF, ref Foxenberg et al. [2007]; cited from earlier work
T1 sequence (P05177 2-516 limits assumed): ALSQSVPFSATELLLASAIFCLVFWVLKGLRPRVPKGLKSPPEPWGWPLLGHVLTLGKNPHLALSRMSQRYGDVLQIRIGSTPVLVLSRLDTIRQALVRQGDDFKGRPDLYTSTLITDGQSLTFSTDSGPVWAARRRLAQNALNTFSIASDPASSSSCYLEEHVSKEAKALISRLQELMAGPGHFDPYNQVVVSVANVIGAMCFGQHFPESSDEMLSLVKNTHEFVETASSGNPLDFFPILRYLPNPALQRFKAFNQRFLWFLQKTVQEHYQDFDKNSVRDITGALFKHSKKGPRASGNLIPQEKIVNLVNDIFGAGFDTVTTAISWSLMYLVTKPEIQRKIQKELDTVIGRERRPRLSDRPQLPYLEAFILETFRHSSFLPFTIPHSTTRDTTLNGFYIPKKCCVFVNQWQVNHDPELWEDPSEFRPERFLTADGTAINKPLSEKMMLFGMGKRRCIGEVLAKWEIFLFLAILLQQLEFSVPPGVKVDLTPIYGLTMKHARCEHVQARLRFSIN

pooled HLMs (CYPs) = settings: cited from earlier work
[2] = cited from earlier work
[3] = Pathway 2 (CPF to TCPy), pooled HLMs, CPF 3–100 µM, ref Sams et al. ([2004])

CCOP(=S)(OCC)Oc1nc(Cl)c(Cl)cc1Cl [CPF, Chlorpyrifos]
summed scaled CE of Supersomes ([1]; bioactivation of CPF, sum of four individual Supersomes): 1578 L/h
overall extrapolated Vmax from Supersome data versus HLM-derived Vmax ([1]; high affinity component): 1.9 fold
overall extrapolated Vmax from Supersome data versus HLM-derived Vmax ([1]; low affinity component): 0.9 fold
Km (CYP1A2): 0.38 µM
Vmax (high affinity) (pooled HLMs (CYPs); Pathway 1 (CPF to CPO), pooled HLMs, CPF 0.02–10 µM, ref Buratti et al. ([2003])): 0.275 nmol/min/mg microsomal protein
Vmax (low affinity) (pooled HLMs (CYPs); Pathway 1 (CPF to CPO), pooled HLMs, CPF 3–100 µM, ref Sams et al. ([2004])): 0.353 nmol/min/mg microsomal protein
Km (pooled HLMs (CYPs); [3]): 12 µM
Vmax (pooled HLMs (CYPs); [3]): 0.653 nmol/min/mg microsomal protein
Km (pooled HLMs (CYPs); read-out: Km (high affinity), Pathway 1 (CPF to CPO), pooled HLMs, CPF 0.02–10 µM, ref Buratti et al. ([2003])): 0.27 µM
Km (pooled HLMs (CYPs); read-out: Km (low affinity), apparent Km in pooled HLMs, Pathway 1 (CPF to CPO), CPF 3–100 µM, ref Sams et al. ([2004])): 29.8 µM
ka (absorption rate constant) ([2]; PBK model input, mean, ref Bouchard et al. ([2005])): 0.46 h⁻¹
fa (fractional absorption), mean ([2]; mean of the reported fa values, ref Timchalk et al. ([2002]), Nolan et al. ([1984])): 0.462 and 0.46
fa (fractional absorption) ([2]; ref Nolan et al. ([1984])): 0.7
fa (fractional absorption) ([2]; ref Timchalk et al. ([2002])): 0.224
